The source of these data is US10228358B2, “Apparatus and method for the assessment of concentration profiling and permeability rates” (Pion Inc., priority 2015, dated 2019).

Data set [1] is described as follows: In vitro dissolution-permeation of aripiprazole forms on μFLUX. The format is in vitro ADME. How it is done:
In the case of buccal drug delivery, the donor chamber represented the oral cavity, the artificial membrane the oral mucosa, while the acceptor chamber represented the blood circulation. At first […] of n-dodecane was dribbled on the membrane surface, then 20 mL of pH 6.8 phosphate buffer was added into the donor chamber, and 20 mL of sink buffer was added into the acceptor chamber. […] Samples equivalent to 20 mg of ARP were placed in the donor chamber. Both chambers were stirred at 200 rpm at room temperature, using stirring devices 87 and 89. The temperature was controlled via elements 91. In both chambers the API concentration was followed by UV-spectrophotometry at 252 nm. Suitable probes for the spectroscopic measurements (not shown in FIG. 12) were introduced through openings 93 and 95.
The flux across the membrane was calculated using the following equation:
[formula] where the flux (J) of a drug through the membrane is defined as the amount (n) of drug crossing a unit area (A) perpendicular to its flow per unit time (t).
The API concentration profiles in the donor and acceptor vessels (1000 mg/L max concentration, 0.025 mol/dm^3 KH2PO4 buffer in the donor compartment, n-dodecane membrane, sink buffer as acceptor, 150 rpm, 25° C.) are presented, respectively, in FIGS. 13A and 13B.

Data set [2] in a line: physchem. To be noted: aqueous buffer.
Description: In the case of buccal drug delivery, the donor chamber represented the oral cavity, the artificial membrane the oral mucosa, while the acceptor chamber represented the blood circulation. At first 75 mL of n-dodecane was dribbled on the membrane surface, then 20 mL of pH 6.8 phosphate buffer was added into the donor chamber, and 20 mL of sink buffer was added into the acceptor chamber. […] Both chambers were stirred at 200 rpm at room temperature, using stirring devices 87 and 89. The temperature was controlled via elements 91. In both chambers the API concentration was followed by UV-spectrophotometry at 252 nm. Suitable probes for the spectroscopic measurements (not shown in FIG. 12) were introduced through openings 93 and 95.
The in vitro dissolution-absorption studies were carried out using a μFLUX™ (Pion Inc., Billerica Mass., U.S.A.), a schematic diagram of which is shown in FIG. 12. The apparatus included a donor and an acceptor chamber (20 mL volume) separated by an artificial membrane (PVDF, polyvinylidenefluoride, 0.45 μm, 1.54 cm^2). In the case of oral drug delivery, the donor chamber represents the gastrointestinal tract, while the acceptor chamber represents the blood circulation. […]
The nature of data set [3]: Permeability in concentric nested donor/receiver arrangement with PAMPA membrane. The format is in vitro ADME. To be noted: in situ UV fiber optic, read-out: Peff (effective permeability coefficient). In general terms: In PAMPA a lipid-coated filter parts donor from acceptor wells.
Description: A concentric nested arrangement was used to study permeability of several compounds. The membrane was a PAMPA membrane and experiments were performed with and without Acceptor Sink Buffer™ on the acceptor sink side. Concentrations measurements were taken using in situ UV fiber optic system Pion Spectra™.

≈ marks a conversion by molar mass, not a printed value.

`O=C1CCc2ccc(OCCCCN3CCN(c4cccc(Cl)c4Cl)CC3)cc2N1` [ARP, aripiprazole]: the “API dissolved during the biorelevant time” value in data set [1] (30-60 min, donor chamber) worked out at 1.5%. Moreover, the “flux during the first 25 min” value in data set [1] (n-dodecane membrane, sink buffer acceptor) amounted to 16 μg/h×cm^2. Moreover, the solubility in data set [2] turned out to be 30 µg/mL (≈ 66.9 µM). On to `CC(=O)Oc1ccccc1C(=O)O` [Aspirin], for which, in data set [3], the Papp turned out to be 331 ×10⁻⁶ cm/s. Same read-out and setting: for `Cn1c(=O)c2c(ncn2C)n(C)c1=O` [Caffeine] the value was 257 ×10⁻⁶ cm/s.

The term solubility denotes how much of the substance goes into solution per volume. Low readings indicate a poorly soluble substance, high ones a readily soluble substance.
